Some test systems named below: NCI-H226; NCI-H460; HOP-62; U-251; 786-0; DU-145; MDA-MB-435; A498; OVCAR-8; ACHN; LOX IMVI; KM12; MDA-MB-231; UACC-62; SF-268; Hs-578T; SK-MEL-2; COLO 205; NCI-H23; MCF7.
Common to all, as to assay: growth of human tumour cells (NCI), 48 h

This is an account of results in ChEMBL document CHEMBL1201862, “PubChem BioAssay data set” (2004).

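These data come from cells grown in 96-well plates and exposed to compound for 48 hours at five concentrations. Here, GI50 denotes the concentration required for 50% inhibition of growth.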 Activity calls are given as the source filed them. Rule as the data show it: active = GI50 up to about 1.1 µM and inactive = higher. Bounds are passed on as bounds.

As for `CC(C)(Cl)C(Br)CC/C(CBr)=C(/Cl)CCl.CC(C)(Cl)C(Br)CC/C(CBr)=C(\Cl)CCl` (stereo not given), the GI50 was 0.975 µM (active) with NCI-H226; 6.38 µM (inactive) with NCI-H460; 3.92 µM (inactive) in the assay with HOP-62; 1.73 µM (inactive) in the assay on U-251; 1.66 µM (inactive) in the assay on 786-0; > 10 µM (inactive) in the assay with DU-145. Moreover, the GI50 in the assay with MDA-MB-435 was 1.79 µM (inactive); with A498, 0.1 µM (active); with OVCAR-8, 1.75 µM (inactive); in the assay with ACHN it was 5.64 µM (inactive); in the assay on LOX IMVI, 1.61 µM (inactive); in the assay on KM12, 2.02 µM (inactive). Also, the GI50 in the assay with MDA-MB-231 is 1.83 µM (inactive); in the assay with UACC-62, 1.5 µM (inactive); in the assay on SF-268 it was 2.25 µM (inactive); in the assay with Hs-578T it was 3.22 µM (inactive); with SK-MEL-2, 2.23 µM (inactive); in the assay on COLO 205 it was 0.607 µM (active). Moreover, the GI50 in the assay with NCI-H23 was 2.43 µM (inactive); in the assay with MCF7 it was 2.13 µM (inactive).
`C/C(=N\NS(=O)(=O)c1ccc(C)cc1)P(=O)(O)O`: the GI50 with NCI-H226, in the assay on NCI-H460, in the assay on HOP-62, in the assay with U-251, in the assay on 786-0 and in the assay on DU-145 was > 100 µM (inactive) in each case. In addition, the GI50 in the assay on MDA-MB-435, in the assay on A498, in the assay with OVCAR-8, in the assay with ACHN, in the assay with LOX IMVI and in the assay with KM12 was > 100 µM (inactive) each time. In addition, the GI50 in the assay with MDA-MB-231, in the assay on UACC-62, in the assay on SF-268, in the assay on Hs-578T, in the assay on SK-MEL-2 and with COLO 205 was > 100 µM (inactive) in each case. The GI50 with NCI-H23 and with MCF7 was > 100 µM (inactive) each time.
Regarding `COn1cc(CO)c2ccccc21`, the GI50 is 1.57 µM (inactive) with NCI-H226; > 100 µM (inactive) with NCI-H460; > 100 µM (inactive) in the assay on HOP-62; 69.7 µM (inactive) in the assay on U-251; > 86.9 µM (inactive) in the assay on 786-0; 53.1 µM (inactive) in the assay with DU-145. For the same compound, the GI50 is > 100 µM (inactive) in the assay with MDA-MB-435; 1.82 µM (inactive) in the assay with A498; > 100 µM (inactive) in the assay on OVCAR-8; 61.4 µM (inactive) in the assay on ACHN; > 100 µM (inactive) with LOX IMVI; > 100 µM (inactive) in the assay with KM12. For the same compound, the GI50 with MDA-MB-231 was > 100 µM (inactive); in the assay on UACC-62, 43.3 µM (inactive); in the assay with SF-268 it was > 88.7 µM (inactive); with Hs-578T it was > 68.7 µM (inactive); in the assay with SK-MEL-2 it was > 54.3 µM (inactive); with COLO 205 it was 51.4 µM (inactive). Also, the GI50 was > 100 µM (inactive) with NCI-H23 and 52.7 µM (inactive) in the assay with MCF7.
As for `C/C(=N\N=C(/S)N(C)C)c1cccnn1`, the GI50 with NCI-H226 was 0.849 µM (active); in the assay with NCI-H460 it was 0.394 µM (active); in the assay with HOP-62 it was 1.05 µM (active); with U-251, 0.977 µM (active); in the assay with 786-0, 0.486 µM (active); with DU-145, 0.889 µM (active). In addition, the GI50 in the assay on MDA-MB-435 is 1.42 µM (inactive); in the assay with A498 it was 1.22 µM (inactive); in the assay with OVCAR-8, 0.526 µM (active); in the assay with ACHN, 0.0796 µM (active); in the assay with LOX IMVI, 0.495 µM (active); in the assay on KM12, 2.48 µM (inactive). The GI50 was 0.745 µM (active) with MDA-MB-231; 0.486 µM (active) in the assay on UACC-62; 0.65 µM (active) in the assay on SF-268; > 66.4 µM (inactive) in the assay with Hs-578T; 7.66 µM (inactive) with SK-MEL-2; 0.468 µM (active) in the assay on COLO 205. In addition, the GI50 in the assay on NCI-H23 was 1.13 µM (inactive); in the assay on MCF7 it was 0.726 µM (active).
As for `CC(C(O)c1ccccc1)C(O)(C(F)(F)F)C(F)(F)F` (stereo not given), the GI50 was 69.7 µM (inactive) with NCI-H226; > 100 µM (inactive) in the assay on NCI-H460; > 100 µM (inactive) in the assay with HOP-62; > 100 µM (inactive) in the assay with U-251; > 100 µM (inactive) with 786-0; > 100 µM (inactive) with DU-145. Further, the GI50 in the assay on MDA-MB-435, with A498, in the assay with OVCAR-8, in the assay on ACHN, with LOX IMVI and in the assay with KM12 was > 100 µM (inactive) in each case. Moreover, the GI50 in the assay with MDA-MB-231, in the assay on UACC-62, with SF-268, in the assay on Hs-578T, with SK-MEL-2 and with COLO 205 was > 100 µM (inactive) in each case. Besides, the figures for the GI50 in the assay on NCI-H23 and in the assay on MCF7 were > 100 µM (inactive) and 76.4 µM (inactive), respectively.
`N#Cc1c(-c2ccccc2)cc(-c2ccccc2)n(C2OCC(O)C(O)C2O)c1=S` (stereo not given): the GI50 with NCI-H226 was 16.9 µM (inactive); in the assay with NCI-H460, 15.4 µM (inactive); in the assay with HOP-62 it was 25.6 µM (inactive); in the assay with U-251, 15.3 µM (inactive); in the assay with 786-0, 25.7 µM (inactive); in the assay with DU-145, 19.7 µM (inactive). The GI50 is 19 µM (inactive) with MDA-MB-435; 19.7 µM (inactive) with A498; 20.8 µM (inactive) with OVCAR-8; 18.3 µM (inactive) with ACHN; 18.1 µM (inactive) in the assay on LOX IMVI; 12.9 µM (inactive) in the assay on KM12. Further, the GI50 in the assay on MDA-MB-231 is 0.946 µM (active); in the assay with UACC-62 it was 1.66 µM (inactive); with SF-268 it was 23.4 µM (inactive); with Hs-578T, 29.6 µM (inactive); in the assay on SK-MEL-2, 25.4 µM (inactive); in the assay on COLO 205, 20.1 µM (inactive). Also, the GI50 in the assay on NCI-H23 is 21.3 µM (inactive); with MCF7, 20.1 µM (inactive).
Take `N=C(N)SCC(=O)O`: the GI50 with NCI-H226, in the assay with NCI-H460, in the assay on HOP-62, with U-251, in the assay on 786-0 and in the assay with DU-145 was > 100 µM (inactive) throughout. The GI50 in the assay with MDA-MB-435, with A498, in the assay with OVCAR-8, with ACHN, with LOX IMVI and with KM12 was > 100 µM (inactive) each time. The GI50 in the assay on MDA-MB-231, with UACC-62, with SF-268, in the assay on Hs-578T, in the assay with SK-MEL-2 and in the assay on COLO 205 was > 100 µM (inactive) each time. In addition, the GI50 in the assay with NCI-H23 and in the assay on MCF7 was > 100 µM (inactive) each time.
Turning to `C#C[C@]1(O)CC[C@H]2[C@@H]3CCC4=C/C(=N\OCCN(CC)CC)CC[C@]4(C)[C@H]3CC[C@@]21C`, the GI50 in the assay on NCI-H226 is 11.9 µM (inactive); in the assay on NCI-H460, 5.08 µM (inactive); with HOP-62, 3.58 µM (inactive); in the assay on U-251, 8.04 µM (inactive); in the assay with 786-0, 2.7 µM (inactive); in the assay with DU-145, 10.4 µM (inactive). For the same compound, the GI50 with MDA-MB-435 was 3.27 µM (inactive); with A498 it was 10.8 µM (inactive); with OVCAR-8, 7.24 µM (inactive); in the assay on ACHN, 6.7 µM (inactive); in the assay with LOX IMVI it was 3.13 µM (inactive); with KM12, 2.92 µM (inactive). Besides, the GI50 in the assay with MDA-MB-231 is 13.6 µM (inactive); in the assay with UACC-62 it was 3.44 µM (inactive); in the assay on SF-268 it was 2.92 µM (inactive); with Hs-578T it was 3.18 µM (inactive); in the assay on SK-MEL-2 it was 3.27 µM (inactive); in the assay with COLO 205, 3.02 µM (inactive). For the same compound, the GI50 in the assay on NCI-H23 was 5.22 µM (inactive); with MCF7 it was 4.29 µM (inactive).
In the case of `CC(C)(C)NC(=O)CCC1C(C(=O)NC(C)(C)C)C2(Cl)C(Cl)=C(Cl)C1(Cl)C2(Cl)Cl` (stereo not given), the GI50 in the assay on NCI-H226, in the assay with NCI-H460, in the assay on HOP-62, with U-251, in the assay on 786-0 and in the assay with DU-145 was > 100 µM (inactive) throughout. Also, the GI50 in the assay on MDA-MB-435, in the assay with A498, in the assay on OVCAR-8, in the assay with ACHN, in the assay on LOX IMVI and in the assay on KM12 was > 100 µM (inactive) each time. Further, the GI50 in the assay with MDA-MB-231, in the assay with UACC-62, in the assay with SF-268, in the assay on Hs-578T, in the assay on SK-MEL-2 and in the assay on COLO 205 was > 100 µM (inactive) in each case. In addition, the GI50 in the assay on NCI-H23 and in the assay with MCF7 was > 100 µM (inactive) throughout.
As to `CCNC(=S)N/N=C1\C(=O)Nc2ccc([N+](=O)[O-])cc21`, the GI50 was 97.7 µM (inactive) in the assay on NCI-H226; 20.4 µM (inactive) in the assay with NCI-H460; 27.7 µM (inactive) with HOP-62; 29.5 µM (inactive) with U-251; 19.1 µM (inactive) with 786-0; 33 µM (inactive) in the assay with DU-145. Moreover, the GI50 was 88.1 µM (inactive) with MDA-MB-435; 22.9 µM (inactive) in the assay with A498; 34.7 µM (inactive) with OVCAR-8; 31.2 µM (inactive) in the assay on ACHN; 61.4 µM (inactive) in the assay on LOX IMVI; 52.7 µM (inactive) in the assay on KM12. Also, the GI50 with MDA-MB-231 is 35.3 µM (inactive); in the assay on UACC-62 it was 99.1 µM (inactive); with SF-268, 44.7 µM (inactive); with Hs-578T it was 98.9 µM (inactive); in the assay with SK-MEL-2, > 100 µM (inactive); with COLO 205, > 100 µM (inactive). Besides, the GI50 is > 100 µM (inactive) in the assay with NCI-H23 and 41 µM (inactive) in the assay on MCF7.
